Data on 9 molecules can be found in patent US20180354980A1, “NOVEL TRITERPENE-GLYCOSIDES AS SWEETENERS OR SWEETENER ENHANCER” (Analyticon Discovery GmbH, priority 2015, published 2018).

The subject of series [1] is panel of 4 panelists. The series can be described thus: Organoleptic test of the compounds against sucrose and Pterocaryoside A. More on the design: key to sweetness compared to sucrose: 3: sweeter than the control solution; 2: sweetness comparable with the control solution; 1: less sweet than the control solution but still sweet. In kind it is in vivo. As to conditions: for sweetness compared to sucrose: 0.4 mg/ml (400 ppm) in non-carbonated mineral water vs sucrose 20 mg/ml, panel of 4 panelists; for comment (bitter off taste): 0.4 mg/ml (400 ppm) in non-carbonated mineral water, compared with Pterocaryoside A. The procedure:
(§1) The isolated pure compounds were dissolved in non-carbonated mineral water (“Fonsana Quelle”) in a concentration of 0.4 mg/ml (400 ppm). The sweet taste of each sample was compared by a panel of 4 panelists with a solution of sucrose in a concentration of 20 mg/ml.

For series [2], the system named is panel. As to conditions: ammonium salt; panel rating; cited from earlier work.
Series [3] can be described thus: Solubility in non-carbonated mineral water at the test concentration. The series is classed as physicochemical. As to conditions: 0.4 mg/ml in non-carbonated mineral water. The protocol: as §1
The conditions of series [4]: in vivo; cited from earlier work.

On to `C=C(C)C(O)C(O)CC(C)(O)C1CCC2(C)C1C(O[C@@H]1O[C@H](C)[C@@H](O)[C@H](O)[C@H]1O)CC1C(C)(CCC(=O)O)C(C(=C)C)CCC12C` (stereo partly drawn) [Compound C, 3-(6,9a,9b-trimethyl-7-(prop-1-en-2-yl)-3-(2,4,5-trihydroxy-6-methylhept-6-en-2-yl)-4-((2R,3R,4S,5S,6R)-3,4,5-trihydroxy-6-methyltetrahydro-2H-pyran-2-yloxy)dodecahydro-1H-cyclopenta[a]naphthalen-6-yl)propanoic acid], for which, in series [1], the “sweetness compared to sucrose” value is on record as 3 and the “comment (bitter off taste)” value is listed as “less bitter than Pterocaryoside A”.
The matching figures for `C=C(C)C(O)CCC(C)(O)C1CCC2(C)C1C(OC1OC(COC(C)=O)C(O)C1O)CC1C(C)(CCC(=O)O)C(C(=C)C)CCC12C` (stereo not drawn) [Compound B, 3-(4-(5-(acetoxymethyl)-3,4-dihydroxytetrahydrofuran-2-yloxy)-3-(2,5-dihydroxy-6-methylhept-6-en-2-yl)-6,9a,9b-trimethyl-7-(prop-1-en-2-yl)dodeca hydro-1H-cyclopenta[a]naphthalen-6-yl)propanoic acid]: 1 and “slightly bitter off taste comparable to”.
In the case of Pterocaryoside A, the “comment (bitter off taste)” value in series [1] was “strong bitter and slightly hot off-taste”. Also, in series [1] (solution at desired 0.4 mg/ml, not completely dissolved, vs sucrose 20 mg/ml), the “sweetness compared with the sucrose solution (in words)” value is “comparable to the sweetness of the sucrose solution”. Besides, in series [2], the off-taste result is given as “persistent, mildly bitter, off-taste”; the onset of sweetness result is “instantaneous”; the “sweetness relative to sucrose” value is “about 50 times sweeter than 2% sucrose”. Also, the “solubility at the desired concentration” value in series [3] is recorded as “not completely soluble”.
As to `C=C(C)C1CCC2(C)C(CC(O[C@@H]3OC[C@H](O)[C@H](O)[C@H]3O)C3C(C4(C)CCC(C(C)(C)O)O4)CCC32C)C1(C)CCC(=O)O` (stereo partly drawn) [Compound A, 3-(3-(5-(2-hydroxypropan-2-yl)-2-methyltetrahydrofuran-2-yl)-6,9a,9b-trimethyl-7-(prop-1-en-2-yl)-4-((2S,3R,4S,5S)-3,4,5-trihydroxytetrahydro-2H-pyran-2-yloxy)dodecahydro-1H-cyclopenta[a]naphthalen-6-yl)propanoic acid], in series [1], the “sweetness compared to sucrose” value turned out to be 3 and the “comment (bitter off taste)” value is “less bitter than Pterocaryoside A”.
For the molecule Pterocaryoside B, in series [2], the off-taste result was “persistent, mildly bitter, off-taste”; the onset of sweetness entry is reported as “instantaneous”; the “sweetness relative to sucrose” value is “about 100 times sweeter than 2% sucrose”.
With `C=C(C)C(O)C(O)CC(C)(O)C1CCC2(C)C1C(O[C@@H]1OCC(O)[C@H](O)[C@H]1O)CC1C(C)(CCC(=O)O)C(C(=C)C)CCC12C` (stereo in doubt) [Compound D, 3-(6,9a,9b-trimethyl-7-(prop-1-en-2-yl)-3-(2,4,5-trihydroxy-6-methylhept-6-en-2-yl)-4-((2S,3R,4S,5S)-3,4,5-trihydroxytetrahydro-2H-pyran-2-yloxy)dodecahydro-1H-cyclopenta[a]naphthalen-6-yl)propanoic acid], in series [1], the “sweetness compared to sucrose” value amounted to 3 and the “comment (bitter off taste)” value is “less bitter than Pterocaryoside A”.
The matching figures for `C=C(C)C1CCC2(C)C(CC(O[C@@H]3OC[C@H](O)[C@H](O)[C@H]3O)C3C(C(C)=O)CCC32C)C1(C)CCC(=O)O` (stereo partly drawn) [Compound E, 3-(3-acetyl-6,9a,9b-trimethyl-7-(prop-1-en-2-yl)-4-((2S,3R,4S,5S)-3,4,5-trihydroxytetrahydro-2H-pyran-2-yloxy)dodecahydro-1H-cyclopenta[a]naphthalen-6-yl)propanoic acid]: 3 and “less bitter than Pterocaryoside A”.
As to `C[C@H](CC[C@@H](O[C@@H]1O[C@H](CO[C@@H]2O[C@H](CO)[C@@H](O)[C@H](O)[C@H]2O)[C@@H](O)[C@H](O)[C@H]1O[C@@H]1O[C@H](CO)[C@@H](O)[C@H](O)[C@H]1O)C(C)(C)O)[C@H]1CC[C@@]2(C)[C@@H]3CC=C4[C@@H](CC[C@H](O[C@@H]5O[C@H](CO)[C@@H](O[C@@H]6O[C@H](CO)[C@@H](O)[C@H](O)[C@H]6O)[C@H](O)[C@H]5O)C4(C)C)[C@]3(C)[C@H](O)C[C@]12C` [iso-mogroside V], in series [4], the aftertaste entry is listed as “certain bitter aftertaste”.
For `C[C@H](CC[C@@H](O[C@@H]1O[C@H](CO[C@@H]2O[C@H](CO)[C@@H](O)[C@H](O)[C@H]2O)[C@@H](O)[C@H](O)[C@H]1O[C@@H]1O[C@H](CO)[C@@H](O)[C@H](O)[C@H]1O)C(C)(C)O)[C@H]1CC[C@@]2(C)[C@@H]3CC=C4[C@@H](CC[C@H](O[C@@H]5O[C@H](CO[C@@H]6O[C@H](CO)[C@@H](O)[C@H](O)[C@H]6O)[C@@H](O)[C@H](O)[C@H]5O)C4(C)C)[C@]3(C)[C@H](O)C[C@]12C` [mogroside V], the aftertaste result in series [4] is reported as “certain bitter aftertaste”.
